Source: patent publication US11267826B2, “Penicillin-binding protein inhibitors” (priority 2017, dated 2022)

Tests used:
[1] = system: hyper-permeable E. coli 901C; test: Broth microdilution MIC assay, hyper-permeable E. coli; format: cell-based; settings: for MIC: Escherichia coli, read-out: E. coli 901C MIC
How it was run: (§1)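 CLSI broth microdilution in cation-supplemented Mueller-Hinton broth; 2-fold serial compound dilutions inoculated at 5×10^5 CFU/mL from 3-5 h log-phase cultures. Plates incubated 16-20 hours at 37° C. MIC read visually as lowest concentration with no bacterial growth.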

[2] = system: S. aureus ATCC 29213; test: Broth microdilution MIC assay, S. aureus; format: cell-based; settings: broth microdilution, 16-20 hours at 37° C.; for MIC: Staphylococcus aureus, ATCC29213, read-out: S. aureus 29213 MIC
How it was run: as §1

[3] = system: E. coli K12 PBP1a/b; test: Bocillin FL competition binding assay, PBP1a/1b combined; parameters: species or system Escherichia coli K12; settings: 15 min pre-incubation, PBP 1a/1b combined
Description: (§2) To determine the ability of test compounds to bind Penicillin Binding Proteins (PBPs), a competition binding assay using Bocillin FL (fluorescent derivative of penicillin V) was adapted from the classical method used to assess PBP potency of beta-lactams.
(§3) Penicillin binding proteins were isolated from Escherichia coli K12 by growth of Escherichia coli K12 from a single colony in 4 L of Luria-Bertani (LB) broth at 35° C. and 250 rpm to an OD600 nm of 0.5. The cells were harvested by centrifugation at 7,000×g for 10 min. at 4° C. Cells were resuspended and washed in 50 mM potassium phosphate pH 7.5. The cells were re-suspended in sonication buffer [50 mM Tris-HCl pH 7.5, 1 mM MgCl2, 1 mM beta-mercaptoethanol, and 5 μg/mL DNAse I] and sonicated by 4 passes of 30 seconds at 45 W on ice. The sample was clarified by centrifugation at 3,000×g to remove cell debris and unbroken cells and supernatant containing the membrane proteins was retained. The membrane proteins including the PBPs were further purified from soluble constituents by an ultracentrifugation step at 100,000×g for 30 min. at 4° C. The membrane proteins are washed twice with 10 mM sodium phosphate pH 7, resuspended in a volume of 5 mL, quantitated by BCA assay, adjusted to […] and frozen at −80° C. until use.
(§4) The adapted Bocillin FL competition binding method described herein incorporates a 15 min. pre-incubation of test compound with isolated PBPs to attempt to balance the difference in mechanism of inhibition between beta-lactams (largely irreversible covalent bond to active site Serine) and the boron-containing PBP inhibitor test compounds (reversible covalent bond to active site Serine). Briefly, 50 μL reactions consisted of 100 μg's of total membrane protein extracts containing PBPs incubated with a dilution series of test compound ranging from 0.005 μg/mL to 2,480 μg/mL in 10 mM sodium phosphate pH7 containing 350 mM NaCl. Thirty minute reactions at 35° C. were initiated by addition of […] Bocillin FL, quenched by addition of SDS-PAGE loading buffer containing sodium dodecyl sulfate (SDS) and heated for 15 minutes at 95° C. to denature proteins in preparation for SDS-polyacrylamide gel electrophoresis. The Bocillin FL labeled PBPs are then separated by SDS-PAGE in Novex NuPage 10% Bis-Tris pre-cast gels (Invitrogen). The SDS-PAGE gel, post-electrophoresis, is then washed in water to remove excess SDS for 10 minutes at room temperature and placed on the scanning bed of a GE Healthcare/Amersham Biosciences Storm 860 fluorescence scanner. The excitation wavelength is in the blue spectrum at 450 nm and the emission at 520 nm is captured by the instrument. Effective PBP inhibitors are detected by a reduction in Bocillin FL labeling of the particular PBP over the dose range of test compound in a dose-responsive manner. High molecular weight PBP 1a/1b are not resolved by these gels, thus we report HMW PBP binding results in μg/mL for PBPs 1a/1b combined as well as for PBP2 and PBP3.
(§5) Representative results are shown in Table 2, where A represents a potency of >1000 μg/mL, B represents a potency between 64 and 1000 μg/mL inclusive, and C represents a potency of <64 μg/mL. NT=Not Tested.

[4] = molecular target: T1, E. coli PBP2 (Escherichia coli, UniProt P0AD65); test: Bocillin FL competition binding assay, PBP2; parameters: species or system Escherichia coli K12; settings: 15 min pre-incubation
T1 construct: 100 μg's of total membrane protein extracts containing PBPs; endogenous in cells; host or cells: Escherichia coli K12, membrane protein fraction
T1 sequence (P0AD65 whole entry): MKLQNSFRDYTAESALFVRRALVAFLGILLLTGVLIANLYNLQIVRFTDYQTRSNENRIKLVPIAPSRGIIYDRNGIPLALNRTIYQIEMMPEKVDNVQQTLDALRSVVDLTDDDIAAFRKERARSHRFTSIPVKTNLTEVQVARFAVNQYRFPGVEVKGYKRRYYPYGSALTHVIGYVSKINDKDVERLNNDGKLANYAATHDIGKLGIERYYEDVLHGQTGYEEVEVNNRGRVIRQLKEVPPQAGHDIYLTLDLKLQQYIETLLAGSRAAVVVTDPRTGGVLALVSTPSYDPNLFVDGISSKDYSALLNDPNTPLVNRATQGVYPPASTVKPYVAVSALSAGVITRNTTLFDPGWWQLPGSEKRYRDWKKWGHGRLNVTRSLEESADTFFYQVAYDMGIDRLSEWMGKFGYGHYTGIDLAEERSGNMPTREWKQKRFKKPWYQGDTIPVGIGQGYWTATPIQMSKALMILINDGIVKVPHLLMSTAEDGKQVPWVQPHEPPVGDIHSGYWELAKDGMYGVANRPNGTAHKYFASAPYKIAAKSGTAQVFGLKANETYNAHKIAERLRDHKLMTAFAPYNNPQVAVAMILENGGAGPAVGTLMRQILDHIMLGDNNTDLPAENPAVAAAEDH
Description: as §2, §3, §4, §5

[5] = molecular target: T2, E. coli PBP3 (Escherichia coli, UniProt P0AD68); test: Bocillin FL competition binding assay, PBP3; parameters: species or system Escherichia coli K12; settings: 15 min pre-incubation
T2 construct: 100 μg's of total membrane protein extracts containing PBPs; endogenous in cells; host or cells: Escherichia coli K12, membrane protein fraction
T2 sequence (P0AD68 1-577): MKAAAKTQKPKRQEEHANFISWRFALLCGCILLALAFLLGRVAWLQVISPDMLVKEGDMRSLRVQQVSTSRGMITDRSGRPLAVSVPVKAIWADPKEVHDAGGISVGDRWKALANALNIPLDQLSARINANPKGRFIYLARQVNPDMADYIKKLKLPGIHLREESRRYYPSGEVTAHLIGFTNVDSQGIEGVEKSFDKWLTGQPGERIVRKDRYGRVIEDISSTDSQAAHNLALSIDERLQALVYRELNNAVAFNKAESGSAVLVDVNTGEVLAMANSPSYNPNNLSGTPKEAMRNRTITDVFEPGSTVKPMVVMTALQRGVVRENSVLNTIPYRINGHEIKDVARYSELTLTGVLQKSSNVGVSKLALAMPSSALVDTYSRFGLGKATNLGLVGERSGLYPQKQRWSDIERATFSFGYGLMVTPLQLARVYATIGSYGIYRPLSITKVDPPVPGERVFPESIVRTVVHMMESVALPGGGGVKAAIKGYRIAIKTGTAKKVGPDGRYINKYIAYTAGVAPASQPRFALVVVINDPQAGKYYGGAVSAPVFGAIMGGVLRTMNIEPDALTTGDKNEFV
Description: as §2, §3, §4, §5

SMILES	MIC [1]	MIC [2]	E. coli K12 PBP1a/b Potency [3]	E. coli PBP2 Potency [4]	E. coli PBP3 Potency [5]	E. coli 901C MIC ([1]; broth microdilution, 16-20 hours at 37° C.)	S. aureus 29213 MIC [2]
Nc1nc(/C(=N\O)C(=O)N[C@H]2Cc3cccc(C(=O)O)c3OB2O)cs1 [Example 7, (R,E)-3-(2-(2-aminothiazol-4-yl)-2-(hydroxyimino)acetamido)-2-hydroxy-3,4-dihydro-2H-benzo[e][1,2]oxaborinine-8-carboxylic Acid]	< 64 µg/mL	64 to 128 µg/mL	A (A represents a potency of >1000 μg/mL)	B (B represents a potency between 64 and 1000 μg/mL inclusive)	A (A represents a potency of >1000 μg/mL)	–	–
NCc1ccc(/C(=N/O)C(=O)N[C@H]2Cc3cccc(C(=O)O)c3OB2O)cc1 [Example 12, (R,Z)-3-(2-(4-(aminomethyl)phenyl)-2-(hydroxyimino)acetamido)-2-hydroxy-3,4-dihydro-2H-benzo[e][1,2]oxaborinine-8-carboxylic Acid]	> 128 µg/mL	< 64 µg/mL	B (B represents a potency between 64 and 1000 μg/mL inclusive)	B (B represents a potency between 64 and 1000 μg/mL inclusive)	B (B represents a potency between 64 and 1000 μg/mL inclusive)	–	–
Nc1nc(/C(=N/O)C(=O)N[C@H]2Cc3cccc(C(=O)O)c3OB2O)c(Cl)s1 [Example 17, (R,Z)-3-(2-(2-amino-5-chlorothiazol-4-yl)-2-(hydroxyimino)acetamido)-2-hydroxy-3,4-dihydro-2H-benzo[e][1,2]oxaborinine-8-carboxylic Acid]	64 to 128 µg/mL	< 64 µg/mL	B (B represents a potency between 64 and 1000 μg/mL inclusive)	B (B represents a potency between 64 and 1000 μg/mL inclusive)	B (B represents a potency between 64 and 1000 μg/mL inclusive)	–	–
N#CC1CCC(NC(=O)CO/N=C(\C(=O)N[C@H]2Cc3cccc(C(=O)O)c3OB2O)c2csc(N)n2)CC1 (stereo partly drawn) [Example 63, (R)-3-((Z)-2-(2-aminothiazol-4-yl)-2-((2-(((1s,4S)-4-cyanocyclohexyl)amino)-2-oxoethoxy)imino)acetamido)-2-hydroxy-3,4-dihydro-2H-benzo[e][1,2]oxaborinine-8-carboxylic Acid]	–	–	B (B represents a potency between 64 and 1000 μg/mL inclusive)	B (B represents a potency between 64 and 1000 μg/mL inclusive)	C (C represents a potency of <64 μg/mL)	–	–
Nc1nc(/C(=N/OCC(=O)NCCCCCNC(=O)CBr)C(=O)N[C@H]2Cc3cccc(C(=O)O)c3OB2O)cs1 [Example 78, (R,Z)-3-(2-(2-aminothiazol-4-yl)-15-bromo-6,14-dioxo-4-oxa-3,7,13-triazapentadec-2-enamido)-2-hydroxy-3,4-dihydro-2H-benzo[e][1,2]oxaborinine-8-carboxylic Acid]	> 128 µg/mL	–	B (B represents a potency between 64 and 1000 μg/mL inclusive)	B (B represents a potency between 64 and 1000 μg/mL inclusive)	B (B represents a potency between 64 and 1000 μg/mL inclusive)	–	–
CC(=O)NCCO/N=C(\C(=O)N[C@H]1Cc2cccc(C(=O)O)c2OB1O)c1csc(N)n1 [Example 119, (R,Z)-3-(2-((2-acetamidoethoxy)imino)-2-(2-aminothiazol-4-yl)acetamido)-2-hydroxy-3,4-dihydro-2H-benzo[e][1,2]oxaborinine-8-carboxylic Acid]	64 to 128 µg/mL	> 128 µg/mL	–	–	–	–	–
CS(=O)(=O)NCCO/N=C(\C(=O)N[C@H]1Cc2cccc(C(=O)O)c2OB1O)c1csc(N)n1 [Example 120, (R,Z)-3-(2-(2-aminothiazol-4-yl)-2-((2-(methylsulfonamido)ethoxy)imino)acetamido)-2-hydroxy-3,4-dihydro-2H-benzo[e][1,2]oxaborinine-8-carboxylic Acid]	64 to 128 µg/mL	> 128 µg/mL	–	–	–	–	–
O=C(N[C@H]1Cc2cccc(C(=O)O)c2OB1O)/C(=N\O)c1csc(NCc2ccccn2)n1 [Example 121, (R,Z)-2-hydroxy-3-(2-(hydroxyimino)-2-(2-((pyridin-2-ylmethyl)amino)thiazol-4-yl)acetamido)-3,4-dihydro-2H-benzo[e][1,2]oxaborinine-8-carboxylic Acid]	> 128 µg/mL	< 64 µg/mL	–	–	–	–	–
O=C(N[C@H]1Cc2cccc(C(=O)O)c2OB1O)/C(=N\O)c1csc(NCCc2ccccn2)n1 [Example 122, (R,Z)-2-hydroxy-3-(2-(hydroxyimino)-2-(2-((2-(pyridin-2-yl)ethyl)amino)thiazol-4-yl)acetamido)-3,4-dihydro-2H-benzo[e][1,2]oxaborinine-8-carboxylic Acid]	> 128 µg/mL	< 64 µg/mL	–	–	–	–	–
O=C(N[C@H]1Cc2cccc(C(=O)O)c2OB1O)/C(=N\O)c1csc(NCCc2ccncc2)n1 [Example 123, (R,Z)-2-hydroxy-3-(2-(hydroxyimino)-2-(2-((2-(pyridin-4-yl)ethyl)amino)thiazol-4-yl)acetamido)-3,4-dihydro-2H-benzo[e][1,2]oxaborinine-8-carboxylic Acid]	> 128 µg/mL	< 64 µg/mL	–	–	–	–	–
O=C(N[C@H]1Cc2cccc(C(=O)O)c2OB1O)/C(=N/O)c1csc(NCCc2ccncc2)n1 [Example 124, (R,E)-2-hydroxy-3-(2-(hydroxyimino)-2-(2-((2-(pyridin-4-yl)ethyl)amino)thiazol-4-yl)acetamido)-3,4-dihydro-2H-benzo[e][1,2]oxaborinine-8-carboxylic Acid]	> 128 µg/mL	> 128 µg/mL	–	–	–	–	–
Cc1cc(C)n2c1C=C1C=CC(CCC(=O)NCCON=C(C(=O)N[C@H]3Cc4cccc(C(=O)O)c4OB3O)c3csc(N)n3)=[N+]1[B-]2(F)F [Example 125, (R)-3-(2-(2-aminothiazol-4-yl)-2-((2-(3-(5,5-difluoro-7,9-dimethyl-5H-4λ^4,5λ^4-dipyrrolo[1,2-c:2′,1′-f][1,3,2]diazaborinin-3-yl)propanamido)ethoxy)imino)acetamido)-2-hydroxy-3,4-dihydro-2H-benzo[e][1,2]oxaborinine-8-carboxylic Acid]	–	–	–	–	–	A (A represents an MIC >128 μg/mL)	A (A represents an MIC >128 μg/mL)
O=C(N[C@H]1Cc2cccc(C(=O)O)c2OB1O)/C(Cn1cncn1)=N\O [Example 126, (R,Z)-2-hydroxy-3-(2-(hydroxyimino)-3-(1H-1,2,4-triazol-1-yl)propanamido)-3,4-dihydro-2H-benzo[e][1,2]oxaborinine-8-carboxylic Acid]	> 128 µg/mL	> 128 µg/mL	–	–	–	–	–
O=C(N[C@H]1Cc2cccc(C(=O)O)c2OB1O)/C(Cn1nccn1)=N\O [Example 127, (R,Z)-2-hydroxy-3-(2-(hydroxyimino)-3-(2H-1,2,3-triazol-2-yl)propanamido)-3,4-dihydro-2H-benzo[e][1,2]oxaborinine-8-carboxylic Acid]	> 128 µg/mL	> 128 µg/mL	–	–	–	–	–
